Experimental findings from patent US11091749B2, “Deimmunized lysostaphin and methods of use” (TRUSTEES OF DARTMOUTH COLLEGE, priority 2014, dated 2021) are described below.

Data set [1] concerns MRSA strain USA400. In words: In vitro inhibitory activity (MIC). The format is cell-based, Staphylococcus aureus. The settings on record: 50° C. for 1 hour prior to assay. The text has this: F11, P12 and F13 were screened for in vitro inhibitory activity against MRSA strain USA400 (FIG. 7).
Data set [2] has as its system MRSA strain USA400. In words: Efficacy of F12 in recurrent systemic MRSA infections. The format is in vivo, DR4 HLA transgenic mice. To be noted: for # Treated Mice Surviving: 500 μg enzyme 1 hour later. As to the method:
In a similar set of experiments, the immunogenicity and efficacy of variant F12 was compared to wild-type LST in the absence of adjuvant using DR4 HLA transgenic mice. At week 0, mice were challenged with an intraperitoneal injection of 2×10^8 MRSA strain USA400, and 1 hour later the mice were treated with 500 μg wild-type LST or 500 μg variant F12, given as a single bolus subcutaneous injection. Subsequently, mice were challenged weekly with an intraperitoneal injection of 1×10^9 MRSA strain USA400, and treated as above. Antibody titers were measured weekly beginning at week 2. […] Variant F12 rescued all mice from four recurrent, systemic, MRSA infections (Table 24). The substantially lower antibody titers elicited by variant F12 indicate that this variant is […] than wild-type LST.

For the next data set, the system named is S. aureus 6445. As to the kind of experiment: MIC assay. The format is cell-based, Staphylococcus aureus. The settings on record: biological duplicates.
The subject of a further data set is S. aureus SA113. As to the kind of experiment: MIC assay. The format is cell-based, Staphylococcus aureus. As to the method: (§1) The MICs of wild-type lysostaphin and its variants were determined by adding 2-fold serial dilutions of enzymes into wells of a polypropylene 96-well plate (Costar 3879) containing ˜40,000 S. aureus SA113 (or S. aureus 6445, 3425-1, 3425-3) cells in Muller Hinton broth (BD) supplemented with 2% NaCl and 0.1% bovine serum albumin, yielding a total volume of 100 μl. Plates were grown overnight at 37° C. with shaking at 900 rpm on an Orbit P4 orbital shaker (Labnet; Edison, N.J.). […] The assay was performed in triplicate for each enzyme.

In another data set the test system is MRSA strain 3425-3. As to the kind of experiment: MIC assay. The format is cell-based, Staphylococcus aureus. To be noted: biological duplicates. How it is done:
as §1

The next data set relates to S. aureus 3425-1. In words: MIC assay. The format is cell-based, Staphylococcus aureus. To be noted: biological duplicates. How it is done:
as §1

A short description of data set [3]: Thermostability by differential scanning fluorimetry. The format is physicochemical. How it is done:
The relative thermostability of the lysostaphin variants was determined by differential scanning fluorimetry, as previously described (Niesen, et al. (2007) Nat. Protocols 2:2212-2221). Proteins and SYPRO Orange were diluted in PBS (final concentrations of 100 μg/ml and 5× in 20 μl reaction volume, respectively), and fluorescence was quantified at 1-degree increments from 25 to 94° C. using an Applied Biosystems ABI 7500 fast real-time PCR system. The reactions were performed using PCR Plates for Fast Thermocyclers (VWR; Radnor, Pa.). Fluorescence was quantified using the preset TAMRA parameters. Melting temperatures were determined by data analysis with the ‘DSF Analysis v3.0.xlsx’ EXCEL sheet and GraphPad Prism v.6.02 software.
A general note: In DSF a fluorescence change marks the thermal transition of the protein.

For another data set, the system named is pooled splenocytes. In words: Transgenic DR4 murine immunogenicity study (memory response, splenocyte proliferation). The settings on record: wild-type LST primed mice, 100 μg rechallenge. The format is in vivo. As to the method:
Twelve female 6-8 week old DR4 transgenic mice (Abb Knockout/Transgenic HLA-DR4; B6.129S2-H2-Ab1tm1GruTg(HLA-DRA/H2-Ea,HLA-DRB1*0401/H2-Eb)1Kito; Taconic Farms, Germantown, N.Y.) were divided into four groups of three each and immunized with 50 μl subcutaneous injections of wild-type LST using one of the following four schemes: (i) initial immunization with 100 μg enzyme in CFA, followed by 100 μg boosts in incomplete Freund's adjuvant (IFA) on days 14 and 28; (ii) initial immunization with 20 μg enzyme in CFA, followed by 20 μg boosts in IFA on days 14 and 28; (iii) initial immunization with 100 μg enzyme in PBS buffer, followed by 100 μg boosts in PBS buffer on days 7, 14, 21 and 28; (iv) initial immunization with 20 μg enzyme in PBS buffer, followed by 20 μg boosts in PBS buffer on days 7, 14, 21 and 28. Serum IgG antibody titers against wild-type LST were measured on days 13, 20, 27, 34, and 62. […] Mice were housed without further manipulation until week 23 of the study, at which time serum IgG antibody titers were again measured and mice were divided into two experimental arms having equivalent average antibody titers. Note that during the week 9 to week 23 recovery period, two mice (the lowest titer 100 μg no adjuvant and one of the high titer 100 μg adjuvant) began suffering hair loss, weight loss, and reduced mobility and were sacrificed as per the IACUC approved protocol. […]

What is called MIC is the smallest concentration in the dilution series that meets the test's criterion for growth inhibition. The low end stands for a more susceptible organism, the high end for a less susceptible organism.

For the substance “Wild-Type: wild-type lysostaphin (SEQ ID NO:49) produced in P. pastoris; aglycosylated Ser126Pro backbone in the design studies [reference compound]”, the “retained original MIC activity after heating” value in the data set with MRSA strain USA400 [1] is reported as “full”. Further, in the data set with MRSA strain USA400 [2] (500 μg s.c., weekly challenges, no adjuvant), the “recurrent systemic MRSA infections from which mice were rescued” value is “four”. Besides, the “# Treated Mice Surviving” value worked out at 7 in the data set on MRSA strain USA400 [2] (Week 0, 2×10^8 MRSA USA400 i.p., no adjuvant); 6 in the data set with MRSA strain USA400 [2] (Week 1, 1×10^9 MRSA USA400 i.p.); 5 with MRSA strain USA400 [2] (Week 2, 1×10^9 MRSA USA400 i.p.); 4 in the data set on MRSA strain USA400 [2] (Week 3, 1×10^9 MRSA USA400 i.p.); 0 in the data set on MRSA strain USA400 [2] (Week 4, 1×10^9 MRSA USA400 i.p.). Further, in the data set with S. aureus 6445, the “MIC Strain 6445” value was determined as 0.03 µg/mL. The MIC against S. aureus SA113 (S. aureus SA113, purified enzyme) came to 0.0351 µg/mL. In addition, the “MIC Strain SA113” value with S. aureus SA113 (biological duplicates) came to 0.02 µg/mL. Further, the “MIC Strain 3425-3” value with MRSA strain 3425-3 was 0.03 µg/mL. The “MIC Strain 3425-1” value with S. aureus 3425-1 stood at 0.04 µg/mL. Also, the Tm in data set [3] (SYPRO Orange, PBS) worked out at 59.2 °C; in data set [3] (biological duplicates) it was 59.0 °C. The substance also came in with a stimulation index with pooled splenocytes of 1.8 fold.
